# According to ChEMBL document CHEMBL1201862, “PubChem BioAssay data set” (2004):
# Where a name gives a salt, the structure may show the parent alone.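 Each compound was tested at five concentrations against cells in 96-well plates for 48 hours. GI50 is the concentration that inhibits growth by half.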 Activity calls are given as the source filed them. Cut-off read from the data, not from the text of the source: active = GI50 up to about 1.1 µM and inactive = higher.
# Tests used:
# Experiment in all cases: NCI-60 cell line screen, 48 h
# SNB-75 = tested on: SNB-75
# HT-29 = tested on: HT-29
# NCI-H522 = tested on: NCI-H522
# SK-MEL-5 = tested on: SK-MEL-5
# HCT-15 = tested on: HCT-15
# U-251 = tested on: U-251
# K562 = tested on: K562
# ACHN = tested on: ACHN
# NCI-H23 = tested on: NCI-H23
# CCRF-CEM = tested on: CCRF-CEM
# CAKI-1 = tested on: CAKI-1
# IGROV-1 = tested on: IGROV-1
# HCT-116 = tested on: HCT-116
# SW-620 = tested on: SW-620
# SK-MEL-28 = tested on: SK-MEL-28
# HCC 2998 = tested on: HCC 2998
SMILES,GI50 (SNB-75),GI50 (HT-29),GI50 (NCI-H522),GI50 (SK-MEL-5),GI50 (HCT-15),GI50 (U-251),GI50 (K562),GI50 (ACHN),GI50 (NCI-H23),GI50 (CCRF-CEM),GI50 (CAKI-1),GI50 (IGROV-1),GI50 (HCT-116),GI50 (SW-620),GI50 (SK-MEL-28),GI50 (HCC 2998)
CC1CC2C(=O)NC(=O)C2c2[nH]c3ccccc3c21 (stereo unspecified),1.53 µM (inactive),> 100 µM (inactive),51.4 µM (inactive),70 µM (inactive),> 100 µM,> 100 µM (inactive),91.2 µM (inactive),> 100 µM (inactive),> 100 µM (inactive),> 100 µM (inactive),42.8 µM (inactive),> 100 µM (inactive),> 100 µM (inactive),> 100 µM (inactive),–,–
CC(=O)OCC(OC(C)=O)C(OC(C)=O)C(OC(C)=O)C(=O)CNn1c(-c2ccccc2Cl)nc2ccccc2c1=O (stereo unspecified),> 100 µM (inactive),> 100 µM (inactive),> 100 µM (inactive),> 100 µM (inactive),> 100 µM,> 100 µM (inactive),> 100 µM (inactive),> 100 µM (inactive),> 100 µM (inactive),84.3 µM (inactive),> 100 µM (inactive),–,> 100 µM (inactive),> 100 µM (inactive),> 100 µM (inactive),–
Cc1nc2c(n1CCO)C(=O)c1ccccc1C2=O,82.2 µM (inactive),25.9 µM (inactive),14.5 µM (inactive),11.3 µM (inactive),31.5 µM,26.5 µM (inactive),25.6 µM (inactive),25.1 µM (inactive),15 µM (inactive),27.4 µM (inactive),–,20.3 µM (inactive),18.9 µM (inactive),32.8 µM (inactive),93.3 µM (inactive),41.4 µM (inactive)
CCOC(=O)CC(C)C1(C=O)CCCCC1=O (stereo unspecified),> 100 µM (inactive),> 10 µM (inactive),90.4 µM (inactive),> 100 µM (inactive),38 µM,> 100 µM (inactive),> 100 µM (inactive),> 100 µM (inactive),–,41.8 µM (inactive),> 100 µM (inactive),> 100 µM (inactive),> 100 µM (inactive),–,> 100 µM (inactive),> 100 µM (inactive)
Nc1ccc(C(=O)CC2(O)C(=O)Nc3ccccc32)cc1 (stereo unspecified),92.9 µM (inactive),> 100 µM (inactive),29.7 µM (inactive),> 100 µM (inactive),> 100 µM,–,> 100 µM (inactive),> 100 µM (inactive),> 100 µM (inactive),–,> 100 µM (inactive),> 100 µM (inactive),> 100 µM (inactive),> 100 µM (inactive),> 100 µM (inactive),–
COc1ccc(CN2C(=O)[C@@H]3Cc4c(OC)c(C)c(OC)c(OC)c4[C@H](/C2=C\c2cc(OC)c(OC)c(C)c2OC)N3C(=O)OC(C)C)cc1,> 100 µM (inactive),92.5 µM (inactive),8.75 µM (inactive),29.4 µM (inactive),–,> 100 µM (inactive),25.3 µM (inactive),> 100 µM (inactive),66.4 µM (inactive),35.4 µM (inactive),30.3 µM (inactive),> 100 µM (inactive),9.66 µM (inactive),94.8 µM (inactive),> 100 µM (inactive),22.4 µM (inactive)
CCCCCCCCCCCCCCNCC(OCC)OCC,10.4 µM (inactive),2.86 µM (inactive),3.66 µM (inactive),13.9 µM (inactive),8.47 µM,15.1 µM (inactive),–,12.6 µM (inactive),16.1 µM (inactive),4.84 µM (inactive),–,15.2 µM (inactive),11.1 µM (inactive),15.3 µM (inactive),16.9 µM (inactive),13.4 µM (inactive)
CC1CC2(CCC1OCc1ccccc1)OCCO2 (stereo unspecified),–,> 100 µM (inactive),> 100 µM (inactive),> 100 µM (inactive),> 100 µM,> 100 µM (inactive),> 100 µM (inactive),–,> 100 µM (inactive),> 100 µM (inactive),> 100 µM (inactive),> 100 µM (inactive),> 100 µM (inactive),> 100 µM (inactive),–,> 100 µM (inactive)
N#C/C(=C1\N=NC(N)=C(c2ccc(Cl)cc2)C1=O)c1ccc(Cl)cc1,> 100 µM (inactive),> 100 µM (inactive),> 100 µM (inactive),–,–,> 100 µM (inactive),> 100 µM (inactive),> 100 µM (inactive),> 100 µM (inactive),> 100 µM (inactive),> 100 µM (inactive),> 100 µM (inactive),> 100 µM (inactive),> 100 µM (inactive),> 100 µM (inactive),> 100 µM (inactive)
CC(NC(C)(C)C)C(=O)c1cccc(Cl)c1 (stereo unspecified) [BUPROPION HYDROCHLORIDE],> 100 µM (inactive),> 100 µM (inactive),> 100 µM (inactive),> 100 µM (inactive),–,> 100 µM (inactive),> 100 µM (inactive),> 100 µM (inactive),> 100 µM (inactive),> 100 µM (inactive),> 100 µM (inactive),> 100 µM (inactive),> 100 µM (inactive),> 100 µM (inactive),> 100 µM (inactive),> 100 µM (inactive)
